In one assay the target is Aβ40 peptide (Homo sapiens, UniProt P05067). In words: Isothermal titration calorimetry. Format: binding. The following applies: 1 mM DMG injected instead of nickel; data not shown. Also on record: purchased rPeptides, Watkinsville, Ga., USA kit #A-1180-1; host or cells: E. coli. The text has this:
Nickel binding to human recombinant Aβ40 peptide is confirmed by isothermal titration calorimetry. Isothermal titration calorimetry (ITC) has been already used to analyze copper or zinc binding to various Aβ peptides, including Ab40 (Talmard et al. Biochemistry 46, 13658-13666 (2007); Sacco et al. JBIC Journal of Biological Inorganic Chemistry 17, 531-541 (2012); Hatcher et al. The journal of physical chemistry B 112, 8160-8164 (2008)). In the current study, we used ITC to determine whether nickel can bind the Aβ40 peptide. The peptide (same used in ThT-based aggregation assays) was present in the sample cell at a concentration of 20 μM. Twenty injections of NiSO4 (1 mM solution, 5 μM increments in sample cell) were performed every 5 min under constant stirring (350 rpm) at 25° C., and the heat release was measured (FIG. 9). The heat release profile indicates Ni binding to the peptide (FIG. 9, top Panel).
Isothermal Titration Calorimetry. […] Briefly, 1 mg of lyophilized Aβ40 peptide (#A-1157-2, rPeptides) was resuspended with 1% NH4OH to a concentration of 250 μM, sonicated for 15-20 sec, before being diluted to a final concentration of 20 μM Aβ40 using ddH2O and TBS 10×, pH 7.4 (working buffer: NH4OH 0.2%, TBS 1×, pH 7.4 (“NTBS”)). […] All samples were degassed for 15 min at 25° C. before use. Titration was initiated using a program for 20 injections (2.38 μL each, every 5 min) with continuous stirring (350 rpm) at constant temperature (25° C.). ITC data were analyzed using NanoAnalyze 1.2 software (TA Instruments). Data obtained with the control experiment (Aβ40 peptide in sample cell, buffer in syringe) were subtracted from each experiment to account for any injection-related heat change.

Assay [1] has as its system H2-uptake hydrogenase activity in S. Typhimurium 14028. In words: Amperometric hydrogenase assay on whole cells grown with DMG. Format: cell-based. As to the method: H2-uptake hydrogenase activity is required for colonization in a murine model.
Amperometric hydrogenase assays. […] Cells were suspended in phosphate-buffered saline (PBS) to a final concentration of 8×10^8, per mL and added to a sealed amperometric dual-electrode chamber, with constant stirring; 100 μL of H2-saturated phosphate-buffered saline was added to the chamber and the disappearance of H2 was recorded over time. Hydrogenase activity is expressed in nmoles of H2 oxidized per minute per 10^8 cells.

Assay [2] has as its system S. Typhimurium ATCC 700408. Kind of assay: Biofilm inhibition assay (crystal violet). The assay is classed as cell-based, Salmonella enterica serovar Typhimurium. The following applies: 18 hours with DMG. As for the experimental part:
(§1) Biofilm inhibition assay. S. Typhimurium and K. pneumoniae cultures were adjusted to an optical density (OD600) of 0.1 in fresh LB broth. H. pylori culture was adjusted to an OD600 of 0.15 in brain heart infusion (BHI) supplemented with 0.4% β-cyclodextran. […] Plates containing S. Typhimurium and K. pneumoniae were incubated at 37° C. aerobically without shaking for 18 hours. Plates containing H. pylori were incubated at 37° C. microaerobically without shaking for 48 hours. After incubation with (Na2DMG) a crystal violet biofilm assay was performed as previously described with modifications (Kwasny et al. 2010. Current Protocols in Pharmacology 50:13A. 8.1-13A. 8.23). Briefly, supernatant was removed from the wells. Next, adherent cells were gently washed with phosphate-buffered saline (PBS) and allowed to air dry for 15 minutes. Cells were then heat fixed for one hour at 60° C. before staining with 0.5% crystal violet for 5 minutes. After the crystal violet was thoroughly washed from the wells with distilled deionized water, cells were air dried for 15 minutes. Acetic acid (33%) was then added to the wells to solubilize the crystal violet. The crystal violet-acetic acid solution was transferred to a clean 96 well plate and the OD600 was measured.

Assay [3] has as its system Helicobacter pylori 43504. In words: Biofilm inhibition assay (crystal violet). The assay is classed as cell-based. Conditions: 48 hours with DMG. As to the method:
as §1

For assay [4], the system named is Klebsiella pneumoniae ATCC BAA2472. In words: Biofilm inhibition assay (crystal violet). Format: cell-based. The following applies: 18 hours with DMG. As to the method:
as §1

The subject of assay [5] is C. jejuni (strain NCTC 11168). In words: C. jejuni-chicken colonization experiment. The assay is classed as in vivo, chickens. As to the method: Since chickens are natural hosts for C. jejuni, and chicken meat is one of the main sources of campylobacteriosis in humans, it was important to test the efficacy of DMG alone or in combination with copper in this animal model. Two independent trials were conducted, as described in FIG. 22. In both trials, the treatment was administered through ad libitum drinks, starting two to three days before C. jejuni inoculation (with strain NCTC 11168), and going through the end of each experiment. […] Nine days after inoculation with C. jejuni, chickens were euthanized, and their ceca were isolated for bacterial count. […] The treatment was administered two days before inoculation with C. jejuni, and chicken ceca were harvested eight days after inoculation.

Setting [6] is: Experiment 1, ad libitum CuSO4 (0.2 mM) + DMG (10 mM), total n=6, 9 days p.i.
Where [7] appears, read: Experiment 2, ad libitum CuSO4 (0.2 mM) + DMG (15 mM), total n=5, 8 days p.i.
Setting [8] is: Experiment 2, ad libitum DMG (15 mM), total n=7, 8 days p.i.
The mark [9] stands for this setting: first trial, DMG (10 mM) combined with CuSO4 (0.2 mM).

Aβ40 peptide, sequence (P05067 672-711): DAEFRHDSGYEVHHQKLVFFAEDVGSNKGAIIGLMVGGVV

As to `CC(=NO)C(C)=NO` [DMG, dimethylglyoxime], at Aβ40 peptide, the “binding to Aβ40 peptide (ITC)” value is on record as “cannot bind to the peptide”. Besides, in assay [1] (1 mM DMG + 50 μM NiCl2), the “increase in hydrogenase activity compared to the 1 mM DMG medium” value is given as 50%. Further, the Hydrogenase activity is 14.0 ± 2.7 nmoles H2 oxidized per minute per 10^9 cells in assay [1] (DMG 0.1 mM in blood-based medium, six hours, H2-enriched microaerobic, DMG D1885 (anhydrous)); 4.6 ± 1.2 nmoles H2 oxidized per minute per 10^9 cells in assay [1] (DMG 0.5 mM); 3.9 ± 0.9 nmoles H2 oxidized per minute per 10^9 cells in assay [1] (DMG 1 mM); 6.9 ± 1.7 nmoles H2 oxidized per minute per 10^9 cells in assay [1] (DMG 1 mM + NiCl2 0.05 mM); 0.8 ± 0.1 nmoles H2 oxidized per minute per 10^9 cells in assay [1] (DMG 5 mM). Further, the biofilm formation entry in assay [2], in assay [3] and in assay [4] was “able to inhibit biofilm formation” throughout. Also, the “C. jejuni Average CFUs per g of cecum (x10^8)” value in assay [5] (Experiment 1, ad libitum CuSO4 (0.2 mM) + DMG (10 mM), 9 days p.i.) was 1.12 x10^8 CFUs per g of cecum; in assay [5] (Experiment 2, ad libitum CuSO4 (0.2 mM) + DMG (15 mM), 8 days p.i.) it was 1.99 x10^8 CFUs per g of cecum; in assay [5] (Experiment 2, ad libitum DMG (15 mM), 8 days p.i.), 2.38 x10^8 CFUs per g of cecum. For the same molecule, the “Chickens Cj-free (n=)” value in assay [5] (setting [6]) stood at 2; in assay [5] (setting [7]), 0; in assay [5] (setting [8]) it was 1. Besides, the “Chickens Colonized (n=)” value in assay [5] (setting [6]) was found to be 4; in assay [5] (setting [7]) it was 5; in assay [5] (setting [8]), 6. Moreover, the “chickens in which C. jejuni was not recovered” value in assay [5] (first trial, Cu-DMG treated group (n=6)) was 33%. Further, the “decrease in bacterial count in the cecum compared to the copper-only control” value in assay [5] (setting [9]) is 5 fold. Further, the “decrease in bacterial count in the cecum compared to the water-only control” value in assay [5] (setting [9]) is 3 fold. Moreover, in assay [5] (second trial, DMG (15 mM) combined with CuSO4 (0.2 mM)), the “decrease in bacterial burden compared to the water control” value is recorded as “approximately 3.5 fold”. Moreover, the “less bacterial colonization of the cecum compared to the water only control” value in assay [5] (second trial, DMG only (15 mM)) is recorded as “approximately 3 fold”.

For the origin of these results see patent US20220117266A1, “NICKEL CHELATION THERAPY” (priority 2019, published 2022).
